Patent US20240300937A1, “Substituted 6-(Pyrimidin-4-yl)Quinoline Compounds as Cyclin Dependent Kinase Inhibitors” (BeiGene, Ltd., priority 2022, published 2024)

What was measured:
[1] = target: CDK4/Cyclin D1 (Homo sapiens (Human), UniProt P11802); assay: CDK4/Cyclin D1 kinase TR-FRET inhibition assay; type: biochemical; details: 1 mM ATP, Rb (Ser780)-biotin substrate, read-out: CDK4D1 IC50
Experimental: (§1) Compounds disclosed herein were tested for inhibition of CDK4/Cyclin D1 or CDK6/Cyclin D3 kinase in an assay based on the time-resolved fluorescence-resonance energy transfer (TR-FRET) methodology. The assay was carried out in 384-well low volume black plates in a reaction mixture containing CDK4/Cyclin D1 or CDK6/Cyclin D3, 1 mM ATP, 0.15 μM Rb (Ser780)-biotin substrate and 0-10 μM compound in buffer containing 50 mM HEPES pH7.0, 0.02% NaN3, 0.01% BSA, 0.1 mM Orthovanadate, 50 mM MgCl2, 1 mM DTT and 0.005% Tween-20. The kinase was incubated with compound for 60 minutes at room temperature and the reaction was initiated by the addition of ATP and Rb (Ser780)-biotin substrate. After reaction at room temperature for 120 minutes, an equal volume of stop/detection solution was added according to the manufacture's instruction (Cisbio Bioassays). The stop/detection solution contained Streptavidin-XL665 and Anti-pRb (Ser780) mAb-Eu Cryptate in Detection buffer (Cisbio Bioassays). Plates were incubated at room temperature for 60 minutes, and the TR-FRET signals (ex337 nm, em665 nm/620 nm) were recorded on a PHERAstar FSX plate reader (BMG Labtech). The inhibition percentage of CDK4/Cyclin D1 or CDK6/Cyclin D3 kinase activity in presence of increasing concentrations of compounds was calculated based on the ratio of fluorescence at 665 nm to that at 620 nm. The IC50 for each compound was derived from fitting the data to the four-parameter logistic equation by Dotmatics.

[2] = target: CDK6/Cyclin D3 (Homo sapiens (Human), UniProt Q00534); assay: CDK6/Cyclin D3 kinase TR-FRET inhibition assay; type: biochemical; details: 1 mM ATP, Rb (Ser780)-biotin substrate, read-out: CDK6D3 IC50
Sequence of CDK6/Cyclin D3 (Q00534 whole entry): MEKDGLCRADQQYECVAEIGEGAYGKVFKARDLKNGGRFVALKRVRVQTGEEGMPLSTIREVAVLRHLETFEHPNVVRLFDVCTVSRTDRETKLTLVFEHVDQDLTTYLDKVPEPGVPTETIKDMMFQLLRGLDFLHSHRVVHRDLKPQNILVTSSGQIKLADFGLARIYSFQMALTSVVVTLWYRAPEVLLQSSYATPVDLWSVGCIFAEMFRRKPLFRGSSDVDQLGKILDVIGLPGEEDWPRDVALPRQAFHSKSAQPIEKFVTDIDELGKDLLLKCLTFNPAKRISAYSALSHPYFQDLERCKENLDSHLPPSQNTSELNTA
Sequence of CDK6/Cyclin D3 (P30281 whole entry partner): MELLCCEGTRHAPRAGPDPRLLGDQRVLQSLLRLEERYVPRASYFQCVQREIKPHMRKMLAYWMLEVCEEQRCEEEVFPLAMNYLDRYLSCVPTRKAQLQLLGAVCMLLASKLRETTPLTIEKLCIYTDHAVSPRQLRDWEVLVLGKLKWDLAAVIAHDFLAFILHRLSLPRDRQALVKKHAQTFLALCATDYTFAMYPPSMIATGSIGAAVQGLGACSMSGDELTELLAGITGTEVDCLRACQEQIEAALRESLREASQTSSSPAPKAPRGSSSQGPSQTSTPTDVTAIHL
Experimental: as §1

Sequence of CDK4/Cyclin D1 (P11802 whole entry): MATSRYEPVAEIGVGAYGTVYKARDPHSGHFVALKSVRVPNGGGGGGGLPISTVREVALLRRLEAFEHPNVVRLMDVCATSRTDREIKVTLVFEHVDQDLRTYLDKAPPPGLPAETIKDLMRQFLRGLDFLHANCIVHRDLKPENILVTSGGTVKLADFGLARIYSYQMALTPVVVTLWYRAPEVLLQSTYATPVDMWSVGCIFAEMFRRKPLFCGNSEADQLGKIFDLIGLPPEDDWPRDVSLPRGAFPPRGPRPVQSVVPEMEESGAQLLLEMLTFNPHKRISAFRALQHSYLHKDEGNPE
Sequence of CDK4/Cyclin D1 (P24385 whole entry partner): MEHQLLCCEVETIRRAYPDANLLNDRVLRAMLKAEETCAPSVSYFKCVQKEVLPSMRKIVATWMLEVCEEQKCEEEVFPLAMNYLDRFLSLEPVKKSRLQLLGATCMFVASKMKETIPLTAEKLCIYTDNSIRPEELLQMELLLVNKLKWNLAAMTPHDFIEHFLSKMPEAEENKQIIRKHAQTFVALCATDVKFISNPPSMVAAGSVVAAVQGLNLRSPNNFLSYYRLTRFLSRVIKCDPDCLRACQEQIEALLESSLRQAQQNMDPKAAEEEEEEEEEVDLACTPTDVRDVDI

Compound | IC50 [1] | IC50 [2]
CNC(=O)c1cnc2ccc(-c3nc(N[C@@H]4CCOC[C@H]4O)ncc3F)cc2c1C(C)C [Example 1, 6-(5-fluoro-2-(((3S,4R)-3-hydroxytetrahydro-2H-pyran-4-yl)amino)pyrimidin-4-yl)-4-isopropyl-N-methyl quinoline-3-carboxamide] | 67 nM | 670 nM
CC(C)c1c(C(C)(C)O)cnc2c(F)cc(-c3nc(N[C@@H]4CCOC[C@H]4O)ncc3Cl)cc12 [Example 117, (3S,4R)-4-((5-chloro-4-(8-fluoro-3-(2-hydroxypropan-2-yl)-4-isopropylquinolin-6-yl)pyrimidin-2-yl)amino)tetrahydro-2H-pyran-3-ol] | 2.1 nM | 54 nM
CC(C)c1c(CO)cnc2ccc(-c3nc(N[C@@H]4CCOC[C@H]4O)ncc3F)cc12 [Example 3, (3S,4R)-4-((5-fluoro-4-(3-(hydroxymethyl)-4-isopropylquinolin-6-yl)pyrimidin-2-yl)amino)tetrahydro-2H-pyran-3-ol] | 4.9 nM | 73.5 nM
CC(C)c1ccnc2ccc(-c3nc(N[C@@H]4CCOC[C@H]4O)ncc3Cl)cc12 [Example 4, (3S,4R)-4-((5-chloro-4-(4-isopropylquinolin-6-yl)pyrimidin-2-yl)amino)tetrahydro-2H-pyran-3-ol] | 38 nM | 418 nM
CC(C)c1c(CN[C@H]2CCOC2)cnc2ccc(-c3nc(N[C@@H]4CCOC[C@H]4O)ncc3F)cc12 [Example 39, (3S,4R)-4-((5-fluoro-4-(4-isopropyl-3-((((S)-tetrahydrofuran-3-yl)amino)methyl)quinolin-6-yl)pyrimidin-2-yl)amino)tetrahydro-2H-pyran-3-ol] | 25 nM | 750 nM
CC(C)c1c(CN2CC[C@@H](F)C2)cnc2ccc(-c3nc(N[C@@H]4CCOC[C@H]4O)ncc3F)cc12 [Example 23, (3S,4R)-4-((5-fluoro-4-(3-(((R)-3-fluoropyrrolidin-1-yl)methyl)-4-isopropylquinolin-6-yl)pyrimidin-2-yl)amino)tetrahydro-2H-pyran-3-ol] | 19 nM | 361 nM
CC(C)c1c(CNC2CC2)cnc2ccc(-c3nc(N[C@@H]4CCOC[C@H]4O)ncc3F)cc12 [Example 25, (3S,4R)-4-((4-(3-((cyclopropylamino)methyl)-4-isopropylquinolin-6-yl)-5-fluoropyrimidin-2-yl)amino)tetrahydro-2H-pyran-3-ol] | 8.3 nM | 224 nM
CC(C)c1c(CO)cnc2c(F)cc(-c3nc(N[C@@H]4CCOC[C@H]4O)ncc3F)cc12 [Example 51, (3S,4R)-4-((5-fluoro-4-(8-fluoro-3-(hydroxymethyl)-4-isopropylquinolin-6-yl)pyrimidin-2-yl)amino)tetrahydro-2H-pyran-3-ol] | 4.2 nM | 67.2 nM
CC(C)c1nc(C(C)(C)O)nc2c(F)cc(-c3nc(N[C@@H]4CCOC[C@H]4O)ncc3Cl)cc12 [Example 209, (3S,4R)-4-((5-chloro-4-(8-fluoro-2-(2-hydroxypropan-2-yl)-4-isopropylquinazolin-6-yl)pyrimidin-2-yl)amino)tetrahydro-2H-pyran-3-ol] | 1770 nM | 4990 nM
CC(C)c1c(CNC[C@H]2CCCO2)cnc2ccc(-c3nc(N[C@@H]4CCOC[C@H]4O)ncc3F)cc12 [Example 24, (3S,4R)-4-((5-fluoro-4-(4-isopropyl-3-(((((R)-tetrahydrofuran-2-yl)methyl)amino)methyl)quinolin-6-yl)pyrimidin-2-yl)amino)tetrahydro-2H-pyran-3-ol] | 20 nM | 620 nM
CC(C)c1c(CN2[C@H](C)COC[C@@H]2C)cnc2ccc(-c3nc(N[C@@H]4CCOC[C@H]4O)ncc3F)cc12 [Example 68] | 8.7 nM | 395 nM
CC(C)c1c(CN2C[C@@H](O)[C@H](F)C2)cnc2ccc(-c3nc(N[C@@H]4CCOC[C@H]4O)ncc3F)cc12 [Example 54, (3R,4R)-4-fluoro-1-((6-(5-fluoro-2-(((3S,4R)-3-hydroxytetrahydro-2H-pyran-4-yl)amino)pyrimidin-4-yl)-4-isopropylquinolin-3-yl)methyl)pyrrolidin-3-ol] | 19 nM | 361 nM
CC(C)c1c(CN[C@@H]2CCOC2)cnc2ccc(-c3nc(N[C@@H]4CCOC[C@H]4O)ncc3F)cc12 [Example 40, (3S,4R)-4-((5-fluoro-4-(4-isopropyl-3-((((R)-tetrahydrofuran-3-yl)amino)methyl)quinolin-6-yl)pyrimidin-2-yl)amino)tetrahydro-2H-pyran-3-ol] | 33 nM | 759 nM
CC(C)c1c(CN2CC(O)C2)cnc2ccc(-c3nc(N[C@@H]4CCOC[C@H]4O)ncc3F)cc12 [Example 16, 1-((6-(5-fluoro-2-(((3S,4R)-3-hydroxytetrahydro-2H-pyran-4-yl)amino)pyrimidin-4-yl)-4-isopropylquinolin-3-yl)methyl)azetidin-3-ol] | 15 nM | 600 nM
CC(C)c1c([C@H](C)N)cnc2ccc(-c3nc(N[C@@H]4CCOC[C@H]4O)ncc3F)cc12 [Example 55, (3S,4R)-4-((4-(3-((S)-1-aminoethyl)-4-isopropylquinolin-6-yl)-5-fluoropyrimidin-2-yl)amino)tetrahydro-2H-pyran-3-ol] | 34 nM | 1090 nM
CC(C)c1c(CN2CCC[C@@H](C#N)C2)cnc2ccc(-c3nc(N[C@@H]4CCOC[C@H]4O)ncc3F)cc12 [Example 62, (R)-1-((6-(5-fluoro-2-(((3S,4R)-3-hydroxytetrahydro-2H-pyran-4-yl)amino)pyrimidin-4-yl)-4-isopropylquinolin-3-yl)methyl)piperidine-3-carbonitrile] | 11 nM | 572 nM
Cc1cc(C(C)C)c2cc(-c3nc(N[C@@H]4CCOC[C@H]4O)ncc3F)ccc2n1 [Example 10, (3S,4R)-4-((5-fluoro-4-(4-isopropyl-2-methylquinolin-6-yl)pyrimidin-2-yl)amino)tetrahydro-2H-pyran-3-ol] | 77 nM | 924 nM
CC(C)c1c(CN[C@H]2CCOC2)cnc2ccc(-c3nc(N[C@@H]4CCOC[C@H]4O)ncc3F)cc12 [Example 32, (3S,4R)-4-((5-fluoro-4-(4-isopropyl-3-((((S)-tetrahydrofuran-3-yl)amino)methyl)quinolin-6-yl)pyrimidin-2-yl)amino)tetrahydro-2H-pyran-3-ol] | 11 nM | 484 nM
CC(C)c1c(CN2[C@H](C)COC[C@H]2C)cnc2ccc(-c3nc(N[C@@H]4CCOC[C@H]4O)ncc3F)cc12 [Example 69, (3S,4R)-4-((4-(3-(((3R,5R)-3,5-dimethylmorpholino)methyl)-4-isopropylquinolin-6-yl)-5-fluoropyrimidin-2-yl)amino)tetrahydro-2H-pyran-3-ol] | 8.3 nM | 355 nM
CC(C)c1c([C@@H](C)N2CC[C@@H](F)C2)cnc2ccc(-c3nc(N[C@@H]4CCOC[C@H]4O)ncc3F)cc12 [Example 48, (3S,4R)-4-((5-fluoro-4-(3-((R)-1-((R)-3-fluoropyrrolidin-1-yl)ethyl)-4-isopropylquinolin-6-yl)pyrimidin-2-yl)amino)tetrahydro-2H-pyran-3-ol] | 21 nM | 756 nM
CC(C)c1c(CN[C@@H]2CCCOC2)cnc2c(F)cc(-c3nc(N[C@@H]4CCOC[C@H]4O)ncc3F)cc12 [Example 53, (3S,4R)-4-((5-fluoro-4-(8-fluoro-4-isopropyl-3-((((R)-tetrahydro-2H-pyran-3-yl)amino)methyl)quinolin-6-yl)pyrimidin-2-yl)amino)tetrahydro-2H-pyran-3-ol] | 12 nM | 348 nM
CC(C)c1c([C@@H](C)O)cnc2ccc(-c3nc(N[C@@H]4CCOC[C@H]4O)ncc3F)cc12 [Example 42, (3S,4R)-4-((5-fluoro-4-(3-((R)-1-hydroxyethyl)-4-isopropylquinolin-6-yl)pyrimidin-2-yl)amino)tetrahydro-2H-pyran-3-ol] | 32 nM | 480 nM
CC(C)c1c([C@@H](C)N)cnc2ccc(-c3nc(N[C@@H]4CCOC[C@H]4O)ncc3F)cc12 [Example 56, (3S,4R)-4-((4-(3-((R)-1-aminoethyl)-4-isopropylquinolin-6-yl)-5-fluoropyrimidin-2-yl)amino)tetrahydro-2H-pyran-3-ol] | 3.5 nM | 214 nM
CC(C)c1c([C@H](C)N2CC[C@@H](F)C2)cnc2ccc(-c3nc(N[C@@H]4CCOC[C@H]4O)ncc3F)cc12 [Example 47, (3S,4R)-4-((5-fluoro-4-(3-((S)-1-((R)-3-fluoropyrrolidin-1-yl)ethyl)-4-isopropylquinolin-6-yl)pyrimidin-2-yl)amino)tetrahydro-2H-pyran-3-ol] | 25 nM | 250 nM
Cc1c(-c2nc(N[C@@H]3CCOC[C@H]3O)ncc2F)ccc2ncc(CO)c(C(C)C)c12 [Example 120, (3S,4R)-4-((5-fluoro-4-(3-(hydroxymethyl)-4-isopropyl-5-methylquinolin-6-yl)pyrimidin-2-yl)amino)tetrahydro-2H-pyran-3-ol] | 23.5 nM | 149 nM
